Laboratory results published in ChEMBL document CHEMBL3046262, “Inhibitory Activity of Indanofan and Its Enantiomers on Biosynthesis of Very-Long-Chain Fatty Acids” (J Pestic Sci, 2005).
The source made the active and inactive calls. The calls are words filed in the database; no cut-off is given here.

Key:
[1] = test system: Allium ampeloprasum; experiment: Inhibition of very long chain fatty acid elongase in Allium ampeloprasum microsome using C18:0 as substrate and [14C]-malonate at 1 x 10^-6 M after 10 to 20 min by liquid scintillation counting; type: microsomes
[2] = test system: Allium ampeloprasum; experiment: Inhibition of very long chain fatty acid elongase in Allium ampeloprasum microsome using C20:0 as substrate and [14C]-malonate at 1 x 10^-6 M after 10 to 20 min by liquid scintillation counting; type: microsomes
[3] = Inhibition of very long chain fatty acid elongase in Allium ampeloprasum microsome using C20:0 as substrate and [14C]-malonate after 10 to 20 min by liquid scintillation counting; type: microsomes; settings: read-out: I50
[4] = test system: Allium ampeloprasum; experiment: Inhibition of very long chain fatty acid elongase in Allium ampeloprasum microsome using C20:0 as substrate and [14C]-malonate at 1 x 10^-4 M after 10 to 20 min by liquid scintillation counting; type: microsomes
[5] = test system: Allium ampeloprasum; experiment: Inhibition of very long chain fatty acid elongase in Allium ampeloprasum microsome using C20:0 as substrate and [14C]-malonate at 1 x 10^-5 M after 10 to 20 min by liquid scintillation counting; type: microsomes
[6] = test system: Echinochloa crus-galli; experiment: Herbicidal activity against Echinochloa crus-galli (barnyard grass) by pot assay; type: functional
[7] = test system: Allium ampeloprasum; experiment: Inhibition of very long chain fatty acid elongase in Allium ampeloprasum microsome using C18:0 as substrate and [14C]-malonate at 1 x 10^-5 M after 10 to 20 min by liquid scintillation counting; type: microsomes
[8] = test system: Allium ampeloprasum; experiment: Inhibition of very long chain fatty acid elongase in Allium ampeloprasum microsome using C20:0 as substrate and [14C]-malonate at 1 x 10^-7 M after 10 to 20 min by liquid scintillation counting; type: microsomes
[9] = test system: Allium ampeloprasum; experiment: Inhibition of very long chain fatty acid elongase in Allium ampeloprasum microsome using C18:0 as substrate and [14C]-malonate at 1 x 10^-4 M after 10 to 20 min by liquid scintillation counting; type: microsomes
[10] = Inhibition of very long chain fatty acid elongase in Allium ampeloprasum microsome using C18:0 as substrate and [14C]-malonate after 10 to 20 min by liquid scintillation counting; type: microsomes; settings: read-out: I50
[11] = test system: Allium ampeloprasum; experiment: Inhibition of very long chain fatty acid elongase in Allium ampeloprasum microsome using C18:0 as substrate and [14C]-malonate at 1 x 10^-7 M after 10 to 20 min by liquid scintillation counting; type: microsomes
[12] = test system: Allium ampeloprasum; experiment: Inhibition of very long chain fatty acid elongase in Allium ampeloprasum microsome using C18:0 as substrate and [14C]-malonate at 1 x 10^-8 M after 10 to 20 min by liquid scintillation counting; type: microsomes
[13] = test system: Allium ampeloprasum; experiment: Inhibition of very long chain fatty acid elongase in Allium ampeloprasum microsome using [14C]-malonate assessed per vial at 0.1 uM after 10 to 20 min by liquid scintillation counting; type: microsomes
[14] = test system: Allium ampeloprasum; experiment: Inhibition of very long chain fatty acid elongase in Allium ampeloprasum microsome using C18:0 as substrate and [14C]-malonate at 3 x 10^-8 M after 10 to 20 min by liquid scintillation counting; type: microsomes
[15] = test system: Allium ampeloprasum; experiment: Inhibition of very long chain fatty acid elongase in Allium ampeloprasum microsome using C20:0 as substrate and [14C]-malonate at 1 x 10^-8 M after 10 to 20 min by liquid scintillation counting; type: microsomes
[16] = test system: Allium ampeloprasum; experiment: Inhibition of very long chain fatty acid elongase in Allium ampeloprasum microsome using C18:0 as substrate and [14C]-malonate at 3 x 10^-9 M after 10 to 20 min by liquid scintillation counting; type: microsomes
[17] = test system: Allium ampeloprasum; experiment: Inhibition of very long chain fatty acid elongase in Allium ampeloprasum microsome using C20:0 as substrate and [14C]-malonate at 3 x 10^-9 M after 10 to 20 min by liquid scintillation counting; type: microsomes
[18] = test system: Allium ampeloprasum; experiment: Inhibition of very long chain fatty acid elongase in Allium ampeloprasum microsome using C20:0 as substrate and [14C]-malonate at 3 x 10^-8 M after 10 to 20 min by liquid scintillation counting; type: microsomes
[19] = test system: Allium ampeloprasum; experiment: Inhibition of very long chain fatty acid elongase-mediated elongation to arachidic acid in Allium ampeloprasum microsome using [14C]-malonate after 10 to 20 min by liquid scintillation counting; type: microsomes
[20] = test system: Allium ampeloprasum; experiment: Competitive inhibition of very long chain fatty acid elongase in Allium ampeloprasum microsome using C18:0-CoA as substrate after 10 min by Lineweaver-Burk plot analysis; type: microsomes

| SMILES | inhibition (INH) [1] | inhibition (INH) [2] | IC50 [3] | inhibition (INH) [4] | inhibition (INH) [5] | ED50 [6] | inhibition (INH) [7] | inhibition (INH) [8] | inhibition (INH) [9] | IC50 [10] | inhibition (INH) [11] | inhibition (INH) [12] | INH [13] | inhibition (INH) [14] | inhibition (INH) [15] | inhibition (INH) [16] | inhibition (INH) [17] | inhibition (INH) [18] | inhibition [19] | inhibition [20] |
| --- | --- | --- | --- | --- | --- | --- | --- | --- | --- | --- | --- | --- | --- | --- | --- | --- | --- | --- | --- | --- |
| CCC1(C[C@@]2(c3cccc(Cl)c3)CO2)C(=O)c2ccccc2C1=O [(R)-INDANOFAN] | 14% | 18% | > 1000 µM | 38% | 27% | inactive | 23% | 9% | 25% | > 1000 µM | – | – | – | – | – | – | – | – | – | – |
| CCC1(CC2(c3cccc(Cl)c3)CO2)C(=O)c2ccccc2C1=O (stereo not drawn) [(RS)-INDANOFAN] | – | – | 0.071 µM | – | – | 0.0524 KgAi/ha | – | 60% | – | 0.03 µM | 82% | 19% | 3.6 pmol | 49% | 11% | 9% | 8% | 31% | 86% | – |
| CCC1(C[C@]2(c3cccc(Cl)c3)CO2)C(=O)c2ccccc2C1=O [(S)-INDANOFAN] | – | – | 0.025 µM | – | – | 0.0254 KgAi/ha | – | 76% | – | 0.017 µM | 93% | 30% | – | 71% | 31% | 7% | 15% | 54% | – | Active |
